In brackets after ≈: the same amount, converted by molar mass. Where two headings read alike, the source gives them in different places.
Legend:
Binding in human plasma = conditions: 1 μM; mean ± SD, n = 3 (warfarin n = 2)
[1] = Single-dose pharmacokinetic studies in female FVB mice (PO, IV, IP); format: in vivo, mouse; conditions: single 40 mg/kg oral dose
Protocol: For in-vivo pharmacokinetic studies, compounds were dissolved in a formulation containing 20% propylene glycol, 5% ethanol, 5% labrosol, and 70% polyethylene glycol 400 (PEG400) and administered by oral gavage to female FVB mice weighing ˜25 g. At specified time points after dosing (0.25, 0.5, 1, 2, 4, 6, and 24 h), 2 animals were euthanized by CO2, and ˜1 mL blood (by cardiac puncture) and brain samples were collected. The heparinized blood samples were centrifuged to obtain plasma, which was stored at −80° C. until analysis. Brain samples were weighed, diluted […] with water, and then homogenized using a Precellys 24 tissue homogenizer. Brain homogenates (20% wt/vol) were stored at −80° C. until analysis. Pharmacokinetic protocols involving animals were all reviewed and approved by the UCSF institutional animal care and use committee (IACUC).
(§1) Plasma and brain homogenate samples were extracted using a protein-precipitation method and analyzed by specific LC/MS/MS methods developed for each compound dosed in vivo. The analytical method accuracy and precision were monitored by analyzing quality control (QC) samples that were prepared and treated using the same methods as calibration standards for the plasma or brain homogenate samples.
The data were used to calculate the area under the concentration-time curve (AUClast) by noncompartmental analysis with sparse sampling performed using Phoenix WinNonlin 6.1 software (Pharsight, Mountain View, Calif.).
Pharmacokinetic protocols employing mice were reviewed and approved by the UCSF Institutional Animal Care and Use Committee (IACUC). Female FVB mice, weighing approximately 25 g, were used for all in vivo pharmacokinetic studies. Mice were housed with free access to food and water, and were maintained on 12-h light/dark cycles for 1 week before dosing studies were initiated.
For the single-dose of 40 mg/kg, compounds were dissolved in a formulation containing 5% propylene glycol, […] α-tocopheryl polyethylene glycol 1000 succinate (TPGS) and 70% polyethylene glycol 400 (PEG400), and administered by oral gavage. Two animals per time point were used. At specified time points after dosing (0.5, 1, 2, 4, 6, and 24 h), animals were euthanized by CO2, and blood for plasma (by cardiac puncture) and brain samples were collected. The heparinized blood samples were centrifuged to obtain plasma. Brain samples were weighed, diluted 10-fold with water, and then homogenized using a Precellys 24 tissue homogenizer. The brain and plasma samples were flash-frozen on dry ice and then stored at −80° C. until analysis. For the single-dose administration at 10 mg/kg, compounds were dissolved in a formulation containing 20% propylene glycol, 5% ethanol, 5% labrosol, and 70% PEG400, and administered by oral gavage. Two animals per time point were used. At specified time points after dosing (0.25, 0.5, 1, 2, 4, 6, and 24 h), animals were euthanized by CO2, and blood for plasma (by cardiac puncture) and brain samples were collected. The heparinized blood samples were centrifuged to obtain plasma. Brain samples were weighed, diluted five-fold with water, and then homogenized using a Precellys 24 tissue homogenizer. The brain and plasma samples were flash-frozen on dry ice and then stored at −80° C. until analysis.
Compounds were administered through tail vein injection. Two animals per time point were used. At specified time points after dosing (5 min, 0.25, 0.5, 1, 2, 4, and 6 h), animals were euthanized by CO2. Blood and brain samples were obtained and processed as described above for the oral dosing at 40 mg/kg.
as §1, with “by” for “and treated using”, “as” for “as calibration standards for”, “samples. […]” for “samples.”

[2] = test system: PrP^Sc in dividing ScN2a-cl3 cells; format: cell-based, mouse; design: Dividing ELISA pEC50 (μM) 1st Expt. / Dividing ELISA pEC50 (μM) 2nd Expt. / Dividing ELISA pEC50 (μM) 3rd Expt. / Dividing ELISA pEC50 (μM) Mean: unit not given here
[3] = Single-dose pharmacokinetics in FVB mice (oral gavage, IV); conditions: single oral dose, FVB mice, brain
MDCK-MDR1 cells = test: Permeability in MDCK-MDR1 cells; conditions: MDR1-MDCK cell monolayers; for Permeability PA→B: apical to basal; for Permeability PB→A: basal to apical
[4] = Hepatic microsomal stability, rat; conditions: […]
[5] = test system: PrP^Sc in nondividing ScN2a-cl3 cells; format: cell-based, mouse; conditions: read-out: Non-Dividing ELISA EC50 (μM) Mean (n = 3); ScN2a-c13 non-dividing cells; mean n = 3
[6] = Multiple-dose (three-day) pharmacokinetic studies in FVB mice, drug in liquid diet; format: in vivo, mouse; conditions: three days in liquid diet, higher doses (up to 210 mg/kg/day)
Protocol: Aminothiazole analog (e.g., 4.5 g of 27) was added to 15 mL of pure PEG400, vortexed and sonicated to ensure dissolution, then stored at −4° C. until needed. This highly concentrated PEG400 solution was subsequently diluted to final dosing concentrations, where the volume added was composed of homogenized solid rodent feed, cocoa (taste masking agent), and water. Wild-type FVB mice weigh ˜25 gm and typically drink 20 mL of liquid diet per day, allowing an estimate of daily drug consumption. A single dosing cohort consisted of three mice in a shared cage and liquid diet was provided at the start of the study in sufficient volume to last for the entire three-day trial (˜200 mL). At the end of the three-day dosing period, animals were euthanized by CO2, followed by collection of plasma (cardiac puncture) and removal of whole brain. Heparinized blood was centrifuged to separate plasma and both plasma and brain samples were stored at −80° C. prior to analysis. Plasma samples were prepared for analysis by precipitating proteins and reconstituting the remaining fraction with HPLC mobile phase. Brain samples were typically prepared by four-fold dilution with water after weighing, then homogenized using bead-beater or Polytron™ resulting in a highly concentrated solution that was further diluted with mobile phase as appropriate in preparation for bioanalytical analysis using LC-MS. Analysis was by LC-MS (Shimadzu dual-HPLC pumps, C18 analytical column, with detection using an Applied Biosystems API-4000 triple quadrupole mass spectrometer).
Ten compounds were selected from among the 34 2-AMTs for three-day multiple-dose PK studies at PO doses ranging from 40-210 mg/kg. Selection was based on diversity in potency, chemical structure, and a range of physicochemical properties. We used a liquid diet to facilitate easy drug administration, as well as serve as the daily source of all water and food. This approach was chosen because the mouse bioassay studies that would be used to assess drug effects on survival would be expected to run for 110 to 400 days, or more; gavage dosing for such a long period is not feasible and more stressful to mice. For the multiple-dose PK studies, 4.5 g of the 2-AMT analogs was added to 15 mL of pure PEG400, vortexed and sonicated to ensure dissolution, then stored at −4° C. until needed. This highly concentrated PEG400 solution was subsequently diluted to final dosing concentrations and added to the rodent liquid diet, cocoa (taste-masking agent), and water.
Wild-type FVB mice weigh ˜25 g and typically drink 20 mL of liquid diet per day, allowing an estimate of daily drug consumption. A single dosing cohort consisted of three mice in a shared cage and liquid diet was provided at the start of the study in sufficient volume (˜200 mL) to last for the entire three-day period. At the end of the dosing period, animals were euthanized by CO2, followed by collection of plasma (cardiac puncture) and removal of whole brain. Samples were processed and stored as described above for the 10 mg/kg single-dose studies.
Plasma and brain homogenate samples were extracted using a protein-precipitation method and analyzed by specific LC/MS/MS methods developed for each compound dosed in vivo. The analytical method accuracy and precision were monitored by analyzing quality control (QC) samples that were prepared by the same methods as the plasma or brain homogenate samples. The brain and plasma concentration data were used to calculate the maximal concentration (Cmax), area under the concentration-time curve (AUClast), and absolute bioavailability (% F) by noncompartmental analysis with sparse sampling performed using Phoenix WinNonlin 6.1 software (Pharsight, Mountain View, Calif.).

N2a-cl3 cells [7] = test: cells; conditions: Mus musculus, N2a-cl3, read-out: Dividing Calcein EC50 (μM) Mean (n = 3)
[8] = […]
[9] = test system: PrP^Sc in dividing ScN2a-c13 cells; conditions: read-out: EC50 (ELISA), reduction of PrP^Sc load; dividing ScN2a-c13 cells
[10] = not given; remark: listed apart in the source
N2a-cl3 cells [11] = conditions: read-out: Dividing Calcein EC50 (μM) Mean (n = 3)
[12] = pH 1.2, simulated gastric fluid
[13] = Table 29, 2-AMT analogs tested for potency, usually n = 3 or more
[14] = ScN2a-cl3 dividing cells, 1st determination
[15] = ScN2a-cl3 dividing cells, 2nd determination
[16] = ScN2a-cl3 dividing cells, 3rd determination
[17] = ScN2a-cl3 dividing cells, mean of three determinations

## CC(=O)CC(c1ccccc1)c1c(O)c2ccccc2oc1=O (centres unmarked) [Warfarin, warfarin, reference compound]
Binding in human plasma
  Unbound (%), Human Plasma: 0.68 ± 0.0023%

## Cc1cccc(Nc2nc(-c3ccc(-c4ccnc(N(C)C)c4)cc3)cs2)n1 [IND-0116095]
other
  Analiza solubility (μM) pH 1.2: >150 μM
physchem; [12]
  solubility: > 150 µM
physchem; pH 7.4, aqueous buffer
  solubility: 1.6 µM (≈ 0.62 µg/mL)

## Cc1ccnc(Nc2nc(-c3ccc(O)cc3)cs2)c1 [IND49, 4-[2-(4-Methyl-pyridin-2-ylamino)-thiazol-4-yl]-phenol]
[1]
  AUC0->last, brain exposure: lowest AUClast values
[2]; AMT analogs tested for potency
  EC50: > 10 µM
[2]; [13]
  EC50: > 10 µM
[3]
  Brain exposure (AUClast) ranking: lowest AUClast values

## CN(C)c1cccc(Nc2nc(-c3ccc(-c4ccccc4)cc3)cs2)n1 [IND-0116142]
other
  Analiza solubility (μM) pH 7.4: <0.5 μM
physchem; [12]
  solubility: 16.1 µM (≈ 6 µg/mL)
physchem; pH 7.4, aqueous buffer
  solubility: < 0.5 µM

## Cc1cccc(Nc2nc(-c3ccc(-c4ccnc(OC(C)C)c4)cc3)cs2)n1 [IND-0116096]
other
  Analiza solubility (μM) pH 1.2: >150 μM
physchem; [12]
  solubility: > 150 µM
physchem; pH 7.4, aqueous buffer
  solubility: 3.1 µM (≈ 1.25 µg/mL)

## Cc1ccc(Nc2nc(-c3cc(-c4ccccc4)no3)cs2)nc1 [compound 27, (5-Methylpyridin-2-yl)-[4-(3-phenylisoxazol-5-yl)-thiazol-2-yl]-amine]
[2]; [14]
  Dividing ELISA pEC50 (μM) 1st Expt.: 5.96
[2]; [15]
  Dividing ELISA pEC50 (μM) 2nd Expt.: 6.13
[2]; [16]
  Dividing ELISA pEC50 (μM) 3rd Expt.: 6.00
[2]; [17]
  Dividing ELISA pEC50 (μM) Mean: 6.03
[2]; read-out: Antiprion activity ScN2a-cl3 EC50, ScN2a-cl3 cells
  EC50: 0.94 µM
[2]; read-out: Dividing ELISA EC50 (μM) 1st Expt., ScN2a-cl3 dividing cells, 1st determination
  EC50: 1.09 µM
[2]; read-out: Dividing ELISA EC50 (μM) 2nd Expt., ScN2a-cl3 dividing cells, 2nd determination
  EC50: 0.747 µM
[2]; read-out: Dividing ELISA EC50 (μM) 3rd Expt., ScN2a-cl3 dividing cells, 3rd determination
  EC50: 0.994 µM
[2]; read-out: Dividing ELISA EC50 (μM) Mean, ScN2a-cl3 dividing cells, mean of three determinations
  EC50: 0.945 µM
MDCK-MDR1 cells
  Permeability PA→B: 6.8 10^−6 cm/sec
  Permeability PB→A: 8.3 10^−6 cm/sec
[4]
  Microsome stability T1/2: 2.52 h
[5]
  EC50: > 32 µM
[6]
  mean brain concentration in excess of EC50: ≤ 25 fold
N2a-cl3 cells [7]
  EC50: > 32 µM
[8]
  metabolic stability (in words): excellent stability
[9]
  EC50: 0.94 µM

## COCCOc1cc(-c2ccc(-c3csc(Nc4cccc(C)n4)n3)cc2)ccn1 [IND-0116099]
other
  Analiza solubility (μM) pH 7.4: <0.5 μM
physchem; [12]
  solubility: 126 µM (≈ 52.5 µg/mL)
physchem; pH 7.4, aqueous buffer
  solubility: < 0.5 µM

## Cc1cccc(Nc2nc(-c3ccc(-c4ccc(OCC#N)nc4)cc3)cs2)n1 [IND-0116165]
other
  Analiza solubility (μM) pH 7.4: <0.4 μM
physchem; [12]
  solubility: 2.2 µM (≈ 0.879 µg/mL)
physchem; pH 7.4, aqueous buffer
  solubility: < 0.4 µM

## Cc1ccnc(Nc2nc(-c3ccccc3O)cs2)c1 [IND48, 2-[2-(4-Methyl-pyridin-2-ylamino)-thiazol-4-yl]-phenol]
[1]
  AUC0->last, brain exposure: lowest AUClast values
[2]; AMT analogs tested for potency
  EC50: > 10 µM
[2]; [13]
  EC50: > 10 µM
[10]
  melting point: 249 to 250 °C
[3]
  Brain exposure (AUClast) ranking: lowest AUClast values

## Cc1ccc(Nc2nc(-c3ccncc3)cs2)nc1 [compound 23]
[2]; ScN2a-cl3 cells, read-out: Antiprion activity ScN2a-cl3 EC50
  EC50: 1.57 µM
[2]; [14]
  Dividing ELISA pEC50 (μM) 1st Expt.: 5.95
[2]; ScN2a-cl3 dividing cells, 1st determination, read-out: Dividing ELISA EC50 (μM) 1st Expt.
  EC50: 1.12 µM
[2]; [15]
  Dividing ELISA pEC50 (μM) 2nd Expt.: 5.76
[2]; ScN2a-cl3 dividing cells, 2nd determination, read-out: Dividing ELISA EC50 (μM) 2nd Expt.
  EC50: 1.75 µM
[2]; [16]
  Dividing ELISA pEC50 (μM) 3rd Expt.: 5.73
[2]; ScN2a-cl3 dividing cells, 3rd determination, read-out: Dividing ELISA EC50 (μM) 3rd Expt.
  EC50: 1.85 µM
[2]; [17]
  Dividing ELISA pEC50 (μM) Mean: 5.81
[2]; ScN2a-cl3 dividing cells, mean of three determinations, read-out: Dividing ELISA EC50 (μM) Mean
  EC50: 1.57 µM
MDCK-MDR1 cells
  Permeability PA→B: 32.6 10^−6 cm/sec
  Permeability PB→A: 42.3 10^−6 cm/sec
[4]
  Microsome stability T1/2: 0.333 h
N2a-cl3 cells [11]
  EC50: > 32 µM
[5]
  EC50: > 32 µM

Source: patent publication US20140329863A1 (priority 2011, published 2014)
